Test results reported in patent US10227331B2 (priority 2015, dated 2019).

What was measured:
[1] = target: VIM-1 (Pseudomonas aeruginosa (strain ATCC 15692 / DSM 22644 / CIP 104116 / JCM 14847 / LMG 12228 / 1C / PRS 101 / PAO1), UniProt A0A0F7KYQ8); assay: biochemical; conditions: CCF2-FA substrate, 2 hours at 25° C
Procedure, shortened: (§1)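 Class B activity is measured in the presence of compound by fluorescence with CCF2-FA after a 2-hour incubation at 25° C. IC50 is taken from a 4-parameter fit of semi-logarithmic dose-response data.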

[2] = test system: P. aeruginosa expressing IMP-1, efflux− (MB9799); assay: Efflux: concentration of MBL inhibitor which restores susceptibility to imipenem; format: cell-based, Pseudomonas aeruginosa; conditions: imipenem at 2 μg/mL, in the presence of a class A, C, D serine β-lactamase inhibitor closely related to relebactam
Text: (§2) The strain background is Pseudomonas aeruginosa PAO1.

[3] = target: IMP-1 (Serratia marcescens, UniProt P52699); assay: biochemical; format: biochemical; conditions: CCF2-FA substrate, 2 hours at 25° C; read-out: IMP-1 IC50
Procedure, shortened: as §1

[4] = target: NDM-1 (Klebsiella pneumoniae, UniProt C7C422); assay: biochemical; format: biochemical; conditions: CCF2-FA substrate, 2 hours at 25° C; read-out: NDM-1 IC50
Procedure, shortened: as §1

[5] = test system: Serratia marcescens expressing IMP-1 (CL5741); format: cell-based; conditions: with imipenem 1 μg/ml; 95% inhibition of bacterial growth
Procedure, shortened: (§3)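 Clinical strains grown overnight on blood agar, then diluted 1:100 in 1.1× CAMHB and exposed to test compound with imipenem at 1 μg/ml. Incubation was 22–24 h at 35° C; growth was read by absorbance to find the compound concentration restoring imipenem susceptibility.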

[6] = test system: Escherichia coli expressing NDM-1 (CLB30005, CLB30016); format: cell-based; conditions: with imipenem 1 μg/ml; 95% inhibition of bacterial growth
Procedure, shortened: as §3

[7] = test system: Klebsiella pneumoniae expressing VIM-1 (IHMA599644); format: cell-based; conditions: with imipenem 1 μg/ml; 95% inhibition of bacterial growth
Procedure, shortened: as §3

[8] = test system: P. aeruginosa expressing IMP-1, efflux+ (MB9798); format: cell-based, Pseudomonas aeruginosa; conditions: for P. aeruginosa expressing IMP-1, efflux+ (MB9798) MITC95: imipenem at 2 μg/mL, in the presence of a class A, C, D serine β-lactamase inhibitor closely related to relebactam; for Efflux ratio: ratio MITC95 PA_9798/MITC95 PA_9799
Text: as §2

Chain of IMP-1 (P52699 whole entry, looked up, species assumed): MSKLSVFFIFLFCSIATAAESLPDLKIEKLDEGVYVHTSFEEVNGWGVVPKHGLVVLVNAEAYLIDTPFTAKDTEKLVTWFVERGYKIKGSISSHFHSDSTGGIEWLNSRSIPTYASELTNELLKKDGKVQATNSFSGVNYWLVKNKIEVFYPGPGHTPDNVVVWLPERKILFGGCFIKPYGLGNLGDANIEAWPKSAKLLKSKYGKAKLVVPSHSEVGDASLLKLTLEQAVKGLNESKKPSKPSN
Chain of NDM-1 (C7C422 whole entry, looked up, species assumed): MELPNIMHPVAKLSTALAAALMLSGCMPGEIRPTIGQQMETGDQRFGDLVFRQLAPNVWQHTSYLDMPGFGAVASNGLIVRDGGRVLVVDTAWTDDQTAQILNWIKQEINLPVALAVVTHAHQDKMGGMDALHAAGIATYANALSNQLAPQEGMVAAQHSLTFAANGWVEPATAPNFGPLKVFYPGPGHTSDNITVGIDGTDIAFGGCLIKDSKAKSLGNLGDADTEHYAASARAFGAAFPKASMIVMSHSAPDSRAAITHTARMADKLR

SMILES	IC50 [1] [nM]	P. aeruginosa expressing IMP-1, efflux− (MB9799) MITC95 [2] [µM]	IC50 [3] [nM]	IC50 [4] [nM]	Serratia marcescens expressing IMP-1 (CL5741) MITC95 [5] [µM]	Escherichia coli expressing NDM-1 (CLB30016) MITC95 [6] [µM]	Klebsiella pneumoniae expressing VIM-1 (IHMA599644) MITC95 [7] [µM]	P. aeruginosa expressing IMP-1, efflux+ (MB9798) MITC95 [8] [µM]	Efflux ratio [8]
NCCS(=O)(=O)c1ccc(-c2cccc3[nH]c(C(=O)O)nc23)c(-c2nn[nH]n2)c1S(N)(=O)=O [Example 91, 4-(4-((2-aminoethyl)sulfonyl)-3-sulfamoyl-2-(2H-tetrazol-5-yl)phenyl)-1H-benzo[d]imidazole-2-carboxylic Acid]	0.239	0.7813	0.386	0.189	1.563	1.172	2.344	0.7813	1.00
C[C@H](N)CS(=O)(=O)c1ccc(-c2cccc3[nH]c(N)nc23)c(-c2nn[nH]n2)c1S(N)(=O)=O [Example 92, 3-(2-amino-1H-benzo[d]imidazol-4-yl)-6-((S)-2-aminopropylsulfonyl)-2-(2H-tetrazol-5-yl)benzenesulfonamide]	0.223	0.5893	0.612	0.141	0.6406	0.2969	0.8542	0.4777	0.81
C[C@H](N)CS(=O)(=O)c1ccc(-c2cccc3sc(N)nc23)c(-c2nn[nH]n2)c1S(N)(=O)=O [Example 93, 3-(2-aminobenzo[d]thiazol-4-yl)-6-((S)-2-aminopropylsulfonyl)-2-(2H-tetrazol-5-yl)benzenesulfonamide]	0.13	0.7813	0.13	0.0732	0.7813	1.172	3.125	0.7813	1.00
CC(C)(N)CS(=O)(=O)c1ccc(-c2cccc3sc(N)nc23)c(-c2nn[nH]n2)c1S(N)(=O)=O [Example 94, 6-(2-amino-2-methylpropylsulfonyl)-3-(2-aminobenzo[d]thiazol-4-yl)-2-(2H-tetrazol-5-yl)benzenesulfonamide]	0.222	1.563	0.504	0.206	1.563	0.7813	3.125	3.125	2.00
Nc1nc2c(-c3ccc(S(=O)(=O)CC4(N)CC4)c(S(N)(=O)=O)c3-c3nn[nH]n3)cccc2s1 [Example 95, 3-(2-aminobenzo[d]thiazol-4-yl)-6-((1-aminocyclopropyl)methylsulfonyl)-2-(2H-tetrazol-5-yl)benzenesulfonamide]	0.293	1.563	0.221	0.138	1.563	1.563	6.25	3.125	2.00
Nc1nc2c(-c3ccc(S(=O)(=O)CC(N)CO)c(S(N)(=O)=O)c3-c3nn[nH]n3)cccc2s1 (centres unmarked) [Example 96, 6-(2-amino-3-hydroxypropylsulfonyl)-3-(2-aminobenzo[d]thiazol-4-yl)-2-(2H-tetrazol-5-yl)benzenesulfonamide]	0.185	1.563	0.265	0.122	1.563	1.563	3.125	0.7813	0.50
NCC(O)CS(=O)(=O)c1ccc(-c2cccc3sc(N)nc23)c(-c2nn[nH]n2)c1S(N)(=O)=O (centres unmarked) [Example 97, 6-(3-amino-2-hydroxypropylsulfonyl)-3-(2-aminobenzo[d]thiazol-4-yl)-2-(2H-tetrazol-5-yl)benzenesulfonamide]	0.249	0.7813	0.171	0.0645	1.563	0.7813	1.563	0.3906	–
NS(=O)(=O)c1c(S(=O)(=O)C2CNC2)ccc(-c2cnc3ccccc3c2)c1-c1nnn[nH]1.O=C(O)C(F)(F)F [Example 98, 3-((4-(quinolin-3-yl)-2-sulfamoyl-3-(1H-tetrazol-5-yl)phenyl)sulfonyl)azetidin-1-ium 2,2,2-trifluoroacetate]	0.241	1.563	1.97	0.4	3.125	3.125	3.125	25	15.99
Cc1cc(-c2ccc(S(=O)(=O)C3CNC3)c(S(N)(=O)=O)c2-c2nnn[nH]2)cnc1C#N.O=C(O)C(F)(F)F [Example 99, 3-((4-(6-cyano-5-methylpyridin-3-yl)-2-sulfamoyl-3-(1H-tetrazol-5-yl)phenyl)sulfonyl)azetidin-1-ium 2,2,2-trifluoroacetate]	0.535	1.563	13.7	3.94	12.5	6.25	6.25	200	127.96
NS(=O)(=O)c1c(S(=O)(=O)C2CNC2)ccc(-c2cccc3[nH]ncc23)c1-c1nnn[nH]1.O=C(O)C(F)(F)F [Example 100, 3-((4-(1H-indazol-4-yl)-2-sulfamoyl-3-(1H-tetrazol-5-yl)phenyl)sulfonyl)azetidin-1-ium 2,2,2-trifluoroacetate]	0.331	1.563	1.61	0.358	3.125	6.25	3.125	6.25	4.00
NS(=O)(=O)c1c(S(=O)(=O)C2CNC2)ccc(-c2cnc3ccoc3c2)c1-c1nnn[nH]1.O=C(O)C(F)(F)F [Example 101, 3-((4-(furo[3,2-b]pyridin-6-yl)-2-sulfamoyl-3-(1H-tetrazol-5-yl)phenyl)sulfonyl)azetidin-1-ium 2,2,2-trifluoroacetate]	0.399	1.563	1.48	0.905	3.125	3.125	6.25	12.5	8.00
NS(=O)(=O)c1c(S(=O)(=O)C2CNC2)ccc(-c2cccc3ccnn23)c1-c1nnn[nH]1.O=C(O)C(F)(F)F [Example 102, 3-((4-(pyrazolo[1,5-a]pyridin-7-yl)-2-sulfamoyl-3-(1H-tetrazol-5-yl)phenyl)sulfonyl)azetidin-1-ium 2,2,2-trifluoroacetate]	0.457	1.563	0.909	0.407	3.125	3.125	3.125	3.125	2.00
Cn1cnc2cc(-c3ccc(S(=O)(=O)C4CNC4)c(S(N)(=O)=O)c3-c3nnn[nH]3)cnc21.O=C(O)C(F)(F)F [Example 103, 3-((4-(3-methyl-3H-imidazo[4,5-b]pyridin-6-yl)-2-sulfamoyl-3-(1H-tetrazol-5-yl)phenyl)sulfonyl)azetidin-1-ium 2,2,2-trifluoroacetate]	0.581	1.563	1.85	0.954	3.125	12.5	6.25	12.5	8.00
